Experimental data published in ChEMBL document CHEMBL1921770, “Synthesis and structure-activity relationship (SAR) of (5,7-disubstituted 3-phenylsulfonyl-pyrazolo[1,5-a]pyrimidin-2-yl)-methylamines as potent serotonin 5-HT(6) receptor (5-HT(6)R) antagonists” (J Med Chem, 2011).
Activity calls are given as the source filed them. The rule behind the calls is not given here.

Columns and labels:
[1] = biological target: T1, 5-hydroxytryptamine receptor 2C (Homo sapiens) (UniProt P28335); assay: Inhibition of serotonin 5-HT2C receptor at 1 uM by ligand displacement assay
T1 sequence (whole entry): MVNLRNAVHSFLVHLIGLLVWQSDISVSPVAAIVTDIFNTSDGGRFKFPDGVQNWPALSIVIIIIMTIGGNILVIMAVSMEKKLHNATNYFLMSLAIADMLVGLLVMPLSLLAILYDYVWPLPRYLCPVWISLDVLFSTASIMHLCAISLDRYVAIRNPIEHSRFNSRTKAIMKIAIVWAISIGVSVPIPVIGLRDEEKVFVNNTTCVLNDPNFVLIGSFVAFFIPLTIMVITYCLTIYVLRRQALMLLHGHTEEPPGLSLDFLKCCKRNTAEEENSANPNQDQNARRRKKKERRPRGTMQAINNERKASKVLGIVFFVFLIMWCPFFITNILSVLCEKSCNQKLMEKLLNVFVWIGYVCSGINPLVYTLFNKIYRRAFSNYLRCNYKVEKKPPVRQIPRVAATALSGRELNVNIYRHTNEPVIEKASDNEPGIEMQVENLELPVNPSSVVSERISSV

[2] = biological target: T2, 5-hydroxytryptamine receptor 6 (Homo sapiens, UniProt P50406); assay: Inhibition of human recombinant 5-HT6 receptor expressed in human HEK293 cells assessed as inhibition of serotonin-induced cAMP accumulation; format: functional, cell-based
T2 sequence (P50406 whole entry): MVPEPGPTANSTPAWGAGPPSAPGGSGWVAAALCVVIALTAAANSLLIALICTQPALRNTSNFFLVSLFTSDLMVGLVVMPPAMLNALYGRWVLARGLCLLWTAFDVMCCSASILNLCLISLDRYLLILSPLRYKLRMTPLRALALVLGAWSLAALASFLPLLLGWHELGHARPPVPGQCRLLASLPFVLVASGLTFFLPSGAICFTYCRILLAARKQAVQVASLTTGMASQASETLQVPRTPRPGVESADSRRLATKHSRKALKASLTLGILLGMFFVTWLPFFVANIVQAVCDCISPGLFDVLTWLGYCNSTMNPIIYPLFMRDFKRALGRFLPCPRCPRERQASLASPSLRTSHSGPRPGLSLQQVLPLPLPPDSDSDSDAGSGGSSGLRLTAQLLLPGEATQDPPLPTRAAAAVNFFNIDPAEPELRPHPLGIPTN

[3] = biological target: D(4) dopamine receptor (Homo sapiens) (UniProt P21917); assay: Inhibition of dopamine D4.4 receptor at 1 uM by ligand displacement assay
[4] = Inhibition of dopamine D4.7 receptor at 1 uM by ligand displacement assay
[5] = biological target: D(1B) dopamine receptor (Homo sapiens) (UniProt P21918); assay: Inhibition of dopamine D5 receptor at 1 uM by ligand displacement assay
[6] = biological target: Histamine H1 receptor (Homo sapiens) (UniProt P35367); assay: Inhibition of histamine H1 receptor at 1 uM by ligand displacement assay
[7] = biological target: Histamine H2 receptor (Homo sapiens) (UniProt P25021); assay: Inhibition of histamine H2 receptor at 1 uM by ligand displacement assay
[8] = biological target: Histamine H3 receptor (Homo sapiens) (UniProt Q9Y5N1); assay: Inhibition of histamine H3 receptor at 1 uM by ligand displacement assay
[9] = biological target: Muscarinic acetylcholine receptor M1 (Homo sapiens) (UniProt P11229); assay: Inhibition of muscarinic M1 receptor at 1 uM by ligand displacement assay
Sequence of Muscarinic acetylcholine receptor M1 (Homo sapiens) (P11229 whole entry): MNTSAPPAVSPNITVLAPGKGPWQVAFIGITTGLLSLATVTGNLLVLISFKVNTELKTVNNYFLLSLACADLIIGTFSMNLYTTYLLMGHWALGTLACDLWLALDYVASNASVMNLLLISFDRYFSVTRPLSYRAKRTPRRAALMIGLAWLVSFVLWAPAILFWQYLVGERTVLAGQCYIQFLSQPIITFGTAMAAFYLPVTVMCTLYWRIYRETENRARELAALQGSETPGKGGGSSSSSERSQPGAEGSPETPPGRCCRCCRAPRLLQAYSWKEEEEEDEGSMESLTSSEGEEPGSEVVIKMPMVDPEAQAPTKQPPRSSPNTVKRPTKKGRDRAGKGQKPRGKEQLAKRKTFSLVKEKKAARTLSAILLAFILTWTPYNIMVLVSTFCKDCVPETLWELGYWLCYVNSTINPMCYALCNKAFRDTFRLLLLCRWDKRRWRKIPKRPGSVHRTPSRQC

[10] = biological target: Muscarinic acetylcholine receptor M2 (Homo sapiens) (UniProt P08172); assay: Inhibition of muscarinic M2 receptor at 1 uM by ligand displacement assay
[11] = biological target: Muscarinic acetylcholine receptor M3 (Homo sapiens) (UniProt P20309); assay: Inhibition of muscarinic M3 receptor at 1 uM by ligand displacement assay
[12] = biological target: Muscarinic acetylcholine receptor M4 (Homo sapiens) (UniProt P08173); assay: Inhibition of muscarinic M4 receptor at 1 uM by ligand displacement assay
Sequence of Muscarinic acetylcholine receptor M4 (Homo sapiens) (P08173 whole entry): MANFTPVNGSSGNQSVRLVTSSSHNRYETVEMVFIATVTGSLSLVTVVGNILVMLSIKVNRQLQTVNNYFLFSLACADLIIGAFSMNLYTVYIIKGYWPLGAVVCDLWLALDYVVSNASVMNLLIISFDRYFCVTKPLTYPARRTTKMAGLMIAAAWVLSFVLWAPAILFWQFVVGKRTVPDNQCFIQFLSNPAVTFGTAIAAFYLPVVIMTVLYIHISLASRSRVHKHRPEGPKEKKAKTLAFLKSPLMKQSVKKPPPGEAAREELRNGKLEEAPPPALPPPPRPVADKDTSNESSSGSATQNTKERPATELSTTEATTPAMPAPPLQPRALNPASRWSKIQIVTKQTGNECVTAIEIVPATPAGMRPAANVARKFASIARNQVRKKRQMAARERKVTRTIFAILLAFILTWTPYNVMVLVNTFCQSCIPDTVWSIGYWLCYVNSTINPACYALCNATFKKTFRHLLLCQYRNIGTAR

[13] = biological target: 5-hydroxytryptamine receptor 1A (Homo sapiens) (UniProt P08908); assay: Inhibition of serotonin 5-HT1A receptor at 1 uM by ligand displacement assay
Sequence of 5-hydroxytryptamine receptor 1A (Homo sapiens) (P08908 whole entry): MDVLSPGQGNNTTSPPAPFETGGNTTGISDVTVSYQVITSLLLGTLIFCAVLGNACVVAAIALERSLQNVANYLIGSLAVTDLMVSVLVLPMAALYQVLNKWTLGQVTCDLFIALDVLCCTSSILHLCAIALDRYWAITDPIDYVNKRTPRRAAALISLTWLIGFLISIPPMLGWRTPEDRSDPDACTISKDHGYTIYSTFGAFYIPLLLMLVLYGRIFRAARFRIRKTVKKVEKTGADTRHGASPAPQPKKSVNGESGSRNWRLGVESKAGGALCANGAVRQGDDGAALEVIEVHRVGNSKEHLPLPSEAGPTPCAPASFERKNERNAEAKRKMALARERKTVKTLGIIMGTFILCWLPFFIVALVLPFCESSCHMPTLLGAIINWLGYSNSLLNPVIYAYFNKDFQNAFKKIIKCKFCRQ

[14] = biological target: 5-hydroxytryptamine receptor 1B (Homo sapiens) (UniProt P28222); assay: Inhibition of serotonin 5-HT1B receptor at 1 uM by ligand displacement assay
Sequence of 5-hydroxytryptamine receptor 1B (Homo sapiens) (P28222 whole entry): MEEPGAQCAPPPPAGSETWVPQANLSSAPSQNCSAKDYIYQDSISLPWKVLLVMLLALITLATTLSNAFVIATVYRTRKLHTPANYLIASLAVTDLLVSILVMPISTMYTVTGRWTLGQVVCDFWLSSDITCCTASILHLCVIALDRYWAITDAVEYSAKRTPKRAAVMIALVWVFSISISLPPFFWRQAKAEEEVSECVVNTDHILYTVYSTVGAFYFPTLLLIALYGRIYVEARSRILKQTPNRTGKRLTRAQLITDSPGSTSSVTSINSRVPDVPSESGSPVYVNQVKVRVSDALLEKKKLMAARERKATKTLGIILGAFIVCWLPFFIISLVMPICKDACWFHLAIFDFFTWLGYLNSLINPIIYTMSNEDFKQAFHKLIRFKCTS

[15] = biological target: 5-hydroxytryptamine receptor 2A (Homo sapiens) (UniProt P28223); assay: Inhibition of serotonin 5-HT2A receptor at 1 uM by ligand displacement assay
Sequence of 5-hydroxytryptamine receptor 2A (Homo sapiens) (P28223 whole entry): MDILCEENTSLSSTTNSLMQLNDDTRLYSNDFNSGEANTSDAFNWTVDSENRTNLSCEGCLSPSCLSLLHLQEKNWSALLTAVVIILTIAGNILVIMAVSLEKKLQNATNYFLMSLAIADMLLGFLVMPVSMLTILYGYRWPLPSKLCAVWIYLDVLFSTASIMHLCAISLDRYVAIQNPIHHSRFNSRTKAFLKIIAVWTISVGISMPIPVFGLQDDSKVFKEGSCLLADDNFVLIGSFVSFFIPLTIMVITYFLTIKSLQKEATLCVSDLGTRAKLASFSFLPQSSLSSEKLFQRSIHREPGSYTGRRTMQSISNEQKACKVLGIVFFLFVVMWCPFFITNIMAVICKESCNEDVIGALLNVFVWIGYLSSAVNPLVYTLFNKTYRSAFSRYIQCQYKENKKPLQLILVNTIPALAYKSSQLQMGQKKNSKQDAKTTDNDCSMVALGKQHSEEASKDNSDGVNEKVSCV

[16] = biological target: 5-hydroxytryptamine receptor 2B (Homo sapiens) (UniProt P41595); assay: Displacement of[3H]lysergic acid […] 5-HT2B receptor at 1 uM by ligand displacement assay
Sequence of 5-hydroxytryptamine receptor 2B (Homo sapiens) (P41595 whole entry): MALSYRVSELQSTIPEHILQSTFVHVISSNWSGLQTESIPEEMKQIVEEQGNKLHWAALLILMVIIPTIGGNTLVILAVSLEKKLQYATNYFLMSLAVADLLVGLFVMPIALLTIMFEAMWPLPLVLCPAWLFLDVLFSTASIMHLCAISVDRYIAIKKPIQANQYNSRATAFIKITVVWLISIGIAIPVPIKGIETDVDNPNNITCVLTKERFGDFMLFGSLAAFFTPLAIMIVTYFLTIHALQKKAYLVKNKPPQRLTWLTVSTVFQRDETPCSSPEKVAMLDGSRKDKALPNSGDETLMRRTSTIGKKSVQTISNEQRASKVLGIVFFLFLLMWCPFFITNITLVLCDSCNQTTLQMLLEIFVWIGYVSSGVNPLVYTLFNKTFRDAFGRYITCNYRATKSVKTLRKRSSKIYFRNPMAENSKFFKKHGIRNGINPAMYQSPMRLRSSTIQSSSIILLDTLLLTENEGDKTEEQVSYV

[17] = biological target: T2, 5-hydroxytryptamine receptor 6; assay: Antagonist activity at human recombinant 5-HT6 receptor expressed in human HEK293 cells assessed as inhibition of serotonin-induced cAMP accumulation; format: functional, cell-based; conditions: read-out: pA2 (converted)
[18] = biological target: Adenosine receptor A1 (Homo sapiens) (UniProt P30542); assay: Inhibition of adenosine A1 receptor at 1 uM by ligand displacement assay
[19] = biological target: Adenosine receptor A2a (Homo sapiens) (UniProt P29274); assay: Inhibition of adenosine A2A receptor at 1 uM by ligand displacement assay
Sequence of Adenosine receptor A2a (Homo sapiens) (P29274 whole entry): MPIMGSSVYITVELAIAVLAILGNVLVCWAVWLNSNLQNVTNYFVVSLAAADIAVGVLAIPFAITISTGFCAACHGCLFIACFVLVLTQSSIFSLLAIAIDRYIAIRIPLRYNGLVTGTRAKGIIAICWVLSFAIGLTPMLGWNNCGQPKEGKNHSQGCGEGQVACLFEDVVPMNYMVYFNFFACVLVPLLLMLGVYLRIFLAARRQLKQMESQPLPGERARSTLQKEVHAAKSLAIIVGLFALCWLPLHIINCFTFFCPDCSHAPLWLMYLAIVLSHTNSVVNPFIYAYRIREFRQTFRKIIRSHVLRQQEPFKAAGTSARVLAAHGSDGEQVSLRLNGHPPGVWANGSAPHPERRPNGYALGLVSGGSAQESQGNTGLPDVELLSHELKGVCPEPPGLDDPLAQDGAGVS

[20] = biological target: Adenosine receptor A2b (Homo sapiens) (UniProt P29275); assay: Inhibition of adenosine A2B receptor at 1 uM by ligand displacement assay
[21] = biological target: Adenosine receptor A3 (Homo sapiens) (UniProt P0DMS8); assay: Inhibition of adenosine A3 receptor at 1 uM by ligand displacement assay
[22] = Inhibition of adrenergic alpha1 receptor at 1 uM by ligand displacement assay
[23] = biological target: Alpha-2A adrenergic receptor (Homo sapiens) (UniProt P08913); assay: Inhibition of adrenergic alpha2 receptor at 1 uM by ligand displacement assay
[24] = Inhibition of adrenergic beta receptor at 1 uM by ligand displacement assay
[25] = biological target: D(1A) dopamine receptor (Homo sapiens) (UniProt P21728); assay: Inhibition of dopamine D1 receptor at 1 uM by ligand displacement assay
[26] = biological target: D(2) dopamine receptor (Homo sapiens) (UniProt P14416); assay: Inhibition of dopamine D2S receptor at 1 uM by ligand displacement assay
[27] = biological target: D(3) dopamine receptor (Homo sapiens) (UniProt P35462); assay: Inhibition of dopamine D3 receptor at 1 uM by ligand displacement assay
Sequence of D(3) dopamine receptor (Homo sapiens) (P35462 whole entry): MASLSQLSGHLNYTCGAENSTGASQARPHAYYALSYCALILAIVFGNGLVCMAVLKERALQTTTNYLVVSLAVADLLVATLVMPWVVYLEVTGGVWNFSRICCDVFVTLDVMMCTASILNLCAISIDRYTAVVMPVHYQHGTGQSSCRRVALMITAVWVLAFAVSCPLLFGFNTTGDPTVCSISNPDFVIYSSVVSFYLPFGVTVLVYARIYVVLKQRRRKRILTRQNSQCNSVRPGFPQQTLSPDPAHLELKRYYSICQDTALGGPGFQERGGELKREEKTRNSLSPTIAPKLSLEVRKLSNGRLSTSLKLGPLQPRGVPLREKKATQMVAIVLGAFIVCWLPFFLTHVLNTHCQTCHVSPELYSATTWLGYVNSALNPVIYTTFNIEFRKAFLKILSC

[28] = Inhibition of dopamine D4.2 receptor at 1 uM by ligand displacement assay
[29] = biological target: 5-hydroxytryptamine receptor 3A (Homo sapiens) (UniProt P46098); assay: Inhibition of serotonin 5-HT3 receptor at 1 uM by ligand displacement assay
Sequence of 5-hydroxytryptamine receptor 3A (Homo sapiens) (P46098 whole entry): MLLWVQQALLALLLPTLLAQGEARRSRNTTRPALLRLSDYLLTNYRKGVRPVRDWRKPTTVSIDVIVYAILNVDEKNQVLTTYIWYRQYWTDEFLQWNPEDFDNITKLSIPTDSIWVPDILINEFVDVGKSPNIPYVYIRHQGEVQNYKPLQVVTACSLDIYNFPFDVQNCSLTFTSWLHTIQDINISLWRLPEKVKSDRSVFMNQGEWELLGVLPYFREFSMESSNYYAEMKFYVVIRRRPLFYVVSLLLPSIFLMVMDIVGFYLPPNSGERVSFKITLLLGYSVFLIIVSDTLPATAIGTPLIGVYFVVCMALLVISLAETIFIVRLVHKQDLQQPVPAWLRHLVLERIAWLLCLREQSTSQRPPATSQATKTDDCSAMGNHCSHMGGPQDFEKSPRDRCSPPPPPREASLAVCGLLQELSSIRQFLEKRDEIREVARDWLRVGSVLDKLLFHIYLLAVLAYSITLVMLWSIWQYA

[30] = biological target: 5-hydroxytryptamine receptor 4 (Homo sapiens) (UniProt Q13639); assay: Inhibition of serotonin 5-HT4 receptor at 1 uM by ligand displacement assay
[31] = biological target: 5-hydroxytryptamine receptor 5A (Homo sapiens) (UniProt P47898); assay: Inhibition of serotonin 5-HT5A receptor at 1 uM by ligand displacement assay
Sequence of 5-hydroxytryptamine receptor 5A (Homo sapiens) (P47898 whole entry): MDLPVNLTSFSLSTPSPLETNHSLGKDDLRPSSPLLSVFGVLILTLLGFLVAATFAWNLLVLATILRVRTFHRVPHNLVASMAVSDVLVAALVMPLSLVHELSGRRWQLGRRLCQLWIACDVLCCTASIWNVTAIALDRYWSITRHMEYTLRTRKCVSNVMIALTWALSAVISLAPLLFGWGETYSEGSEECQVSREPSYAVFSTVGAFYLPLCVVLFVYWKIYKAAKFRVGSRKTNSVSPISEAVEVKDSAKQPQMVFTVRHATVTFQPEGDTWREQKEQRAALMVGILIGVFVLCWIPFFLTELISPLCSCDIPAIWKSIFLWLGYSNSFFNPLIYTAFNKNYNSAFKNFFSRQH

[32] = biological target: T2, 5-hydroxytryptamine receptor 6; assay: Displacement of[3H]lysergic acid […] from 5-HT6 receptor at 1 uM by ligand displacement assay
[33] = biological target: 5-hydroxytryptamine receptor 7 (Homo sapiens) (UniProt P34969); assay: Inhibition of serotonin 5-HT7 receptor at 1 uM by ligand displacement assay
[34] = biological target: Voltage-gated inwardly rectifying potassium channel KCNH2 (Homo sapiens, UniProt Q12809); assay: Inhibition of human Erg at 1 uM by ligand displacement assay
[35] = biological target: T2, 5-hydroxytryptamine receptor 6; assay: Partial agonist activity at human recombinant 5-HT6 receptor expressed in human HEK293 cells assessed as inhibition of serotonin-induced cAMP accumulation; format: functional, cell-based

CNc1nn2c(C)c(N(C)C)c(C)nc2c1S(=O)(=O)c1ccccc1
inhibition [1]: inactive | Ki ([2]; read-out: pKi (converted)): 0.209 nM

CNc1nn2c(C)c(CCN(C)C)c(C)nc2c1S(=O)(=O)c1ccccc1
Ki ([2]; read-out: pKi (converted)): 2.09 nM

CNc1nn2c(N3CCOCC3)cc(C)nc2c1S(=O)(=O)c1ccccc1
Ki ([2]; read-out: pKi (converted)): 16.6 nM

CNc1nn2c(CN)cc(C)nc2c1S(=O)(=O)c1ccccc1
Ki ([2]; read-out: pKi (converted)): 1.86 nM

CNc1nn2c(C)c(CN)c(C)nc2c1S(=O)(=O)c1cccc(Cl)c1
Ki ([2]; read-out: pKi (converted)): 0.55 nM

CNc1nn2c(N)cc(C)nc2c1S(=O)(=O)c1ccccc1
inhibition [3]: inactive | inhibition [4]: inactive | inhibition [5]: inactive | inhibition [6]: inactive | inhibition [7]: inactive | inhibition [8]: inactive | inhibition [9]: inactive | inhibition [10]: inactive | inhibition [11]: inactive | inhibition [12]: inactive | inhibition [13]: inactive | inhibition [14]: inactive | inhibition [15]: inactive | inhibition [16]: inactive | inhibition [1]: 50% | Ki ([2]; read-out: pKi (converted)): 0.302 nM | Kb [17]: 0.501 nM | inhibition [18]: inactive | inhibition [19]: inactive | inhibition [20]: inactive | inhibition [21]: inactive | inhibition [22]: inactive | inhibition [23]: inactive | inhibition [24]: inactive | inhibition [25]: inactive | inhibition [26]: inactive | inhibition [27]: inactive | inhibition [28]: inactive | inhibition [29]: inactive | inhibition [30]: inactive | inhibition [31]: inactive | inhibition [32]: 100% | inhibition [33]: inactive | inhibition (INH) [34]: Not Active

CNc1nn2c(C)c(CN(C)C)c(C)nc2c1S(=O)(=O)c1cccc(F)c1
Ki ([2]; read-out: pKi (converted)): 0.891 nM

CNc1nn2c(N(C)CCN(C)C)cc(C)nc2c1S(=O)(=O)c1ccccc1
Ki ([2]; read-out: pKi (converted)): 22.4 nM

CNc1nn2c(N)cc(C)nc2c1S(=O)(=O)c1cccc(Cl)c1
Ki ([2]; read-out: pKi (converted)): 0.219 nM

CNc1nn2c(NCCN(C)C)cc(C)nc2c1S(=O)(=O)c1ccccc1
Ki ([2]; read-out: pKi (converted)): 69.2 nM

CSc1nn2c(N3CCNCC3)c3c(nc2c1S(=O)(=O)c1ccccc1)CCC3
Ki ([2]; read-out: Ki): 0.85 nM

CNc1nn2c(CCN)cc(C)nc2c1S(=O)(=O)c1ccccc1
Kb [17]: 3.98 nM | Ki [35]: 3.09 nM

CNc1nn2c(N)c(Cl)c(C)nc2c1S(=O)(=O)c1ccccc1
Ki ([2]; read-out: Ki): 0.14 nM

CNc1nn2c(CCN(C)C)cc(C)nc2c1S(=O)(=O)c1ccccc1
Ki [35]: 33.9 nM

CNc1nn2c(N)c(Cl)c(C)nc2c1S(=O)(=O)c1cccc(Cl)c1
Ki ([2]; read-out: pKi (converted)): 18.6 nM

CNc1nn2c(C)cc(C)nc2c1S(=O)(=O)c1ccccc1
Ki ([2]; read-out: pKi (converted)): 0.263 nM

CNc1nn2c(NCCCN(C)C)cc(C)nc2c1S(=O)(=O)c1ccccc1
Ki ([2]; read-out: Ki): 112 nM

CNc1nn2c(NC)cc(C)nc2c1S(=O)(=O)c1ccccc1
Ki ([2]; read-out: pKi (converted)): 0.575 nM

CNc1nn2c(C)c(CN(C)C)c(C)nc2c1S(=O)(=O)c1cccc(Cl)c1
Ki ([2]; read-out: pKi (converted)): 0.417 nM

CNc1nn2c(C)c(NC(C)=O)c(C)nc2c1S(=O)(=O)c1ccccc1
Ki ([2]; read-out: pKi (converted)): 4.68 nM

CNc1nn2c(C)c(CN(C)C)c(C)nc2c1S(=O)(=O)c1ccccc1
Ki ([2]; read-out: pKi (converted)): 0.708 nM

CNc1nn2c(N(C)C)cc(C)nc2c1S(=O)(=O)c1ccccc1
Ki ([2]; read-out: pKi (converted)): 0.347 nM

CNc1nn2c(C)cc(CN)nc2c1S(=O)(=O)c1ccccc1
inhibition [1]: inactive | Ki ([2]; read-out: pKi (converted)): 0.977 nM

CNc1nn2c(C)c(N)c(C)nc2c1S(=O)(=O)c1ccccc1
inhibition [1]: inactive | Ki ([2]; read-out: pKi (converted)): 0.525 nM | Kb [17]: 0.398 nM

CNc1nn2c(CN(C)C)cc(C)nc2c1S(=O)(=O)c1ccccc1
Ki ([2]; read-out: pKi (converted)): 1.82 nM

CNc1nn2c(C)c(CN)c(C)nc2c1S(=O)(=O)c1ccccc1
Ki ([2]; read-out: pKi (converted)): 0.646 nM
